Laboratory results published in US11564913B2, “Compositions and methods for treating cancer” (Children's Hospital Medical Center, priority 2019, dated 2023).

Tested on: murine p190-BCR-ABL leukemic progenitor cells (EGFP+/B220dim)
Assay: Cell cycle analysis, BrdU incorporation and flow cytometry
Type: cell-based
Details: for percentage of cells in the G2+M phases: 20 h (SD, N=3)
Description: FIG. 13: IODVA1 decreases Rac activation and signaling. (A) Ba/F3 cells expressing p190-BCR-ABL1 were treated with IODVA1 (3 μM) as indicated and levels of active Rac (Rac-GTP) were assessed by pull-down using GST-PAK-GBD, followed by immunoblotting (upper panel) and densitometric quantification (lower panel). (B) Flow-cytometry analysis of pJNK, pS6, p4EBP, pPAK1, and pAKT of Ba/F3 cells expressing Mieg3 empty vector (light and dark blue) or p190-BCR-ABL1 (light and dark salmon) and treated with vehicle control or IODVA1 (3 μM) for 30 min. (C) Representative histogram data of the cell cycle analysis of Ba/F3 cells expressing p190-BCR-ABL and treated with vehicle control or IODVA1 (1, 3, and 10 μM) for 20 h. (D) Quantification of the average number of colonies of bone marrow wild-type (black) and Rac1^Δ/Δ+Rac2^−/− (red) p190-BCR-ABL1 leukemic cells treated with vehicle control or IODVA1 (IO1, 1 μM). ns—not significant, * p<0.05, ** p<0.01, *** p<0.001. (E) As in FIG. 13A, but cells were incubated for a fixed amount of time (1 h) at the indicated IODVA1 concentrations. (F) Ba/F3 cells expressing p190-BCR-ABL1 were treated with IODVA1 (3 μM) and lysed at the indicated times. Cell lysates were separated on SDS-PAGE and immunoblotted for pPAK(T423), pBAD(S136), and BAD. (G) Ba/F3 cells expressing p190-BCR-ABL1 were treated with IODVA1 (3 μM) and levels of active Cdc42 (Cdc42-GTP) and Rho (Rho-GTP) were assessed by pull-down at the indicated times using GST-PAK-GBD and GST-Rhotekin respectively, followed by immunoblotting (left panel) and densitometric quantification (right panel). (H) Morphology of GFP^+ leukemic colonies (left panel). Western blot analysis of Rac1 and Rac2 protein expression in Rac1^Δ/Δ+Rac2^−/− cells post poly-I:C injections (right panel). (I) Intrinsic (blue line) and p50GAP-stimulated GTP-hydrolysis reaction in the presence (red line) or absence (black line) of IODVA1. (J) Sedimentation assay of liposomal Rac1-GDP in the presence of IODVA1 (2 μM). Rac1 was visualized by immunoblotting from pellet (p) and soluble (s) fractions. (K) Stopped-flow measurement of GDI (10 μM) interaction with fluorescently-labelled Rac1 in the absence (black line) or presence (orange line) of IODVA1.
To further test this hypothesis, we analyzed the cell cycle of murine p190-BCR-ABL leukemic progenitor cells (EGFP^+/B220^dim) incubated with vehicle control or IODVA1 (1-10 μM) for 20 h, followed by in vitro BrdU incorporation and flow cytometry analysis (FIG. 13C). […] It increased the percentage of cells in the G2+M phases from 7±1% (SD, N=3) in the presence of vehicle control to 22±6.6, 32±3, and 36±7% (SD, N=3) at 1, 3, and 10 μM, respectively. At 1 μM, it reduced the S-phase 8-fold (p=0.0002) and increased apoptosis by at least 5.3-times (p=0.007). Therefore, IODVA1 induces a G2/M arrest.
Cell cycle was analyzed by using in vitro incorporation of 5-Bromo-2-deoxyuridine using Brdu Flow kit (BD Pharmingen, Cat #552598). Briefly, mice leukemic progenitors were incubated with […] BrdU solution for 45 minutes, cells were further fixed and permeabilized. DNAse treatment was done according to the instructions and stained with anti BrdU and apoptosis was analyzed by 7-AAD staining through flow cytometry analysis.

## OC1(c2ccccn2)N=C(Nc2nc3ccccc3[nH]2)N=C1c1ccccn1 (stereo not drawn) [IODVA1, (Z)-2-((1H-benzo[d]imidazol-2-yl)imino)-4,5-di(pyridin-2-yl)-2,5-dihydro-1H-imidazol-5-ol]
1 μM, vehicle 7±1%
  percentage of cells in the G2+M phases: 22±6.6%
1 μM, p=0.0002
  reduction of the S-phase: 8 fold
1 μM, p=0.007
  increase in apoptosis: at least 5.3 times
3 μM
  percentage of cells in the G2+M phases: 32±3%
10 μM
  percentage of cells in the G2+M phases: 36±7%
1-10 μM, 20 h
  G0+G1 phase: did not affect
